Earlier results as cited in patent US10888524B2, “Immediate release tablet of dofetilide” (Enaltec Pharma Research Pvt. Ltd., priority 2018, dated 2021).

What was measured:
[1] = tested on: patients with severe left ventricular dysfunction; conditions: unlike class I agents
[2] = tested on: patients with atrial as well as ventricular arrhythmias

Structure (SMILES): CN(CCOc1ccc(NS(C)(=O)=O)cc1)CCc1ccc(NS(C)(=O)=O)cc1 [Dofetilide, N-[4-[2-[methyl[2-[4-[(methylsulfonyl)amino]phenoxy]ethyl]amino]ethyl]phenyl]-methane sulfonamide]
- Safety in patients with congestive heart failure [1]: safe
- Efficacy in treating arrhythmias [2]: effective
